Values of other authors as cited in patent US20110053979A1, “PYRIDINE DERIVATIVES USED TO TREAT OREXIN RELATED DISORDERS” (priority 2008, published 2011).

Key:
rats [1] = conditions: central administration at the onset of the normal sleep period, rat
freely-feeding rats = conditions: central administration, 4 hour time period
rats [2] = tested on: rats
rats [3] = tested on: rats; remark: listed apart in the source

Compound	effect on arousal (rats [1])	increase of food intake over control rats receiving vehicle (freely-feeding rats)	effect on hedonic eating (rats [2])	effect on high-fat pellet self-administration (rats [3])
orexin-A: polypeptide ligand for the orexin-1 receptor; an agonist of the orexin receptors (QPLPDCCRQKTCSCRLYELLHGAGNHAAGILTL; Orexin-A; UniProt O43612 34-66, looked up)	dose-related increase in arousal	approximately four-fold	–	–
Cc1nc2ccc(NC(=O)Nc3ccnc4cccnc34)cc2o1 [SB334867]	–	–	potently reduced hedonic eating	attenuated high-fat pellet self-administration
